Drawing on a melting point compilation (Tetko et al.; mined from patent text by program, amines drawn as free bases though some values may be those of a salt), this text covers melting point for 61 compounds.

What is called melting point is the temperature, or range, at which the solid turns liquid.

Regarding `Fc1ccc(-n2nccc2NC2=NCCN2)cc1`, the melting point was 195 to 197 °C.

In the case of `Cc1ccc(-c2c3c(cc4ccc5c(c24)OCO5)C(=O)NC3=O)cc1`, the melting point was in the range of 297 to 299 °C.

`Cc1cccc(NC(=O)NC2CC(c3ccccc3F)c3ccccc3N(CC(=O)NC(C)(C)C)C2=O)c1` (stereo unspecified) yielded a melting point of 285 to 300 °C.

On to `CCOC(=O)C1=C(COCCNC=O)NC(C)=C(C(=O)OC)C1c1cccc(Cl)c1Cl` (stereo unspecified), for which the melting point was in the range of 178 to 181 °C.

Turning to `C[Si](C)(C)C(N)Cc1ccccc1` (stereo unspecified), the melting point is 67 to 68 °C.

Consider `Cc1ccc(CON2C(C)(C)CC(O)CC2(C)C)cc1`, for which the melting point fell in the range of 92.5 to 93 °C.

In turn, `Cn1c(C(F)(F)F)ccc(-c2cc3c(cc2F)OCC(=O)N3)c1=O` registered a melting point of 216 to 218 °C.

In turn, `O=c1[nH]c(-c2ccc(CCCCN3CCN(c4nsc5ccccc45)CC3)cc2)cs1` yielded a melting point of 140 to 145 °C.

In the case of `COC(=O)COc1cccc2c(CCS(=O)(=O)CCc3ccccc3)c(C)oc12`, the melting point was in the range of 91 to 92 °C.

Consider `O=C(O)[C@@]1(O)C[C@@H](O)[C@H](O)C2=C1CC(Cc1ccccc1)(Cc1ccccc1)S2`, for which the melting point lay within 209 to 212 °C.

`O=C(N=C1SCCN1Cc1cnc(Cl)s1)c1ccccc1` gave a melting point of 120 °C.

Regarding `CC(C)CNS(=O)(=O)CCCCl`, the melting point is 68 to 69 °C.

`COc1ccccc1OP(=O)(CN(CC#N)N=O)Oc1ccccc1OC` returned a melting point of 83 to 85 °C.

In turn, `Oc1nc2ccc3c(c2nc1O)CCCC3` showed a melting point of over 300 °C.

The compound `CNC1(C)CN(c2cc3c(cc2F)c(=O)c(C(=O)O)cn3C(C)(C)C)C1` came in with a melting point of 251 to 253 °C.

With `Cc1cc(C(F)(F)F)ccc1NC(=O)c1c(C)cccc1NC(=O)C(C)C`, the melting point was over 230 °C.

For `CC(=O)Nc1c(C(=O)c2cccc(F)c2)[nH]c2cc(Cl)ccc12`, the melting point is 201 to 202 °C.

The compound `CNC(=O)[C@@H](N[C@@H](C)c1ccccc1)C(C)(C)C` gave a melting point of 107 to 108 °C.

Compound `CC1CCCCN1c1cc(F)cc(C(=O)Nc2ccc(OCCN3CCOCC3)c3ccccc23)c1` (stereo unspecified) had a melting point of 75 to 78 °C.

`CCCOc1c(OC)cc(C(C#N)CCC(C#N)c2cc(OC)c(OC)c(OC)c2)cc1SC` (stereo unspecified): the melting point was 131 to 132 °C.

As to `CCn1c2s[nH]c(=O)c2c(=O)c2cc(F)c(N3CCN(c4ncccn4)CC3)c(OC(F)F)c21`, the melting point fell in the range of 259 to 262 °C.

In the case of `O=C(O)c1nc(C2CC2)nc(NCc2ccco2)c1Cl`, the melting point is 150 to 152 °C.

Regarding `CCOC(=O)c1c(CN2CCOCC2)nc2cc(OCC)c(OCC)cc2c1-c1ccc(OC)c(OC)c1`, the melting point lay in the range of 147 to 148 °C.

For the compound `COc1ccc2c(=O)cc(C(=O)N[C@H]3CCN(C(=O)c4cc(C(F)(F)F)cc(C(F)(F)F)c4)[C@H](Cc4ccc(Cl)cc4)C3)oc2c1`, the melting point fell in the range of 198 to 200 °C.

Consider `O=c1cc(O)cnn1Cc1ccccc1`, for which the melting point fell in the range of 48 to 55 °C.

`N#Cc1ccc(N2C(=O)N(CCF)C(CF)(CF)C2=O)cc1C(F)(F)F`: the melting point was 136 to 137 °C.

As for `O=C(NCCc1ccccc1)c1ccccn1`, the melting point lay in the range of 58 to 59 °C.

Turning to `CC(=O)OC1CSC(Oc2cccc3c2nc(C)n3C)C(OC(C)=O)C1OC(C)=O` (stereo unspecified), the melting point is 192 °C.

`N=C1NC(=O)C(c2ccccc2)S1` (stereo unspecified) showed a melting point of 249 to 252 °C.

`OC(Cn1ccnc1)c1cccc2ccccc12` (stereo unspecified) came in with a melting point of 112 to 115 °C.

As for `CCCCCc1cc(O)c2c3c(c(=O)oc2c1)SC(C)C3` (stereo unspecified), the melting point lay in the range of 188 to 190 °C.

`Nc1nc(N)c(-c2ccc(Cl)cc2Cl)c(CBr)n1` came in with a melting point of over 270 °C.

Consider `Cc1ccc(N2CCN(Cc3ccc4c(c3)OCC(=O)N4)CC2)cc1`, for which the melting point lay within 208 to 210 °C.

In turn, `CCOC(=O)c1cc(=O)c(O)c(-c2ccc(OC)cc2)o1` returned a melting point of 163 to 164 °C.

Turning to `CNS(=O)(=O)Cc1ccc(NC(=O)C(F)(F)F)c(Br)c1`, the melting point worked out at 170 °C.

`O=C(C=Cc1ccncc1)c1ccc([N+](=O)[O-])cc1`: the melting point lay in the range of 218 to 221 °C.

Compound `Fc1ccc(Cn2c(NC3CCN(CCSc4nc5ccccc5o4)CC3)nc3ccccc32)cc1` returned a melting point of 174 °C.

`O=C1CCC(N2Cc3c(OCc4ccc(CN5CCN(C(=O)CCCCC6SCC7NC(=O)NC76)CC5)cc4)cccc3C2=O)C(=O)N1` (stereo unspecified): the melting point was 168 to 170 °C.

For the compound `CCOC(=O)c1c(C(F)(F)F)nc(C(F)F)c(C(=O)OC)c1Cl`, the melting point was 24 to 25 °C.

With `O=C(OCC(Cl)(Cl)Cl)N1CCC(=C2c3ccccc3Oc3ccccc32)CC1`, the melting point fell in the range of 132 to 134 °C.

Compound `CN1CCOC(C2=C(C#N)C(c3cccc4nonc34)c3c[nH]nc3N2)C1` (stereo unspecified) registered a melting point of 143 °C.

`CCOC(=O)c1ncn2c1CN(C)C(=O)c1c(C)cccc1-2` yielded a melting point of 146 to 147 °C.

Take `Cc1c(Oc2ncc(C(F)(F)F)cc2Cl)nn(C(=O)NC(C)C)c1C`: the melting point lay in the range of 78 to 80 °C.

Regarding `COc1ccc(-c2ccccc2)cc1NC(=O)c1ncc[nH]1`, the melting point was determined as 276 °C.

Consider `COc1cc(COc2nn(Cc3ccccc3)cc2C(=O)O)ccc1OCc1nc(-c2ccco2)oc1C`, for which the melting point was in the range of 167 to 168 °C.

Take `Cc1c(CN(O)Cc2ccccc2)c(C)c(CN(O)Cc2ccccc2)c(C)c1CN(O)Cc1ccccc1`: the melting point was in the range of 193 to 195 °C.

As for `CC1(C)N=C(c2ccccc2)CC1c1ccccn1` (stereo unspecified), the melting point fell in the range of 101 to 102 °C.

Turning to `CCOC(=N)C(O)c1ccccc1` (stereo unspecified), the melting point fell in the range of 65 to 67 °C.

The compound `CCOc1cc2c(C)c(CCN3CCN(c4ccccc4OC)CC3)c(=O)oc2cc1OC` returned a melting point of 143 to 145 °C.

Regarding `O=C(CNC(=O)OCc1ccc([N+](=O)[O-])cc1)Nc1ccc(C(=O)OCCl)cc1`, the melting point lay within 163 to 165 °C.

Compound `COc1ccn(-c2ccc(C3CCN(S(=O)(=O)C(C)(C)C(=O)NO)CC3)cc2C)n1` came in with a melting point of 172 to 173 °C.

On to `O=C1CC2CCc3ccncc3C2=NN1c1ccc(C(F)(F)F)cc1` (stereo unspecified), for which the melting point is 141 to 142 °C.

On to `O=C(O)c1cccc(C(=O)O)c1S(=O)(=O)Nc1ccc(F)cc1C(F)(F)F`, for which the melting point lay in the range of 250 to 254 °C.

In turn, `O=C(O)Cc1cccc(OCc2ccc3oc([N+](=O)[O-])c(-c4ccccc4)c3c2)c1` yielded a melting point of 144 to 145 °C.

Turning to `Cn1cc(C2=C(c3cn(CO)c4ccccc34)C(=O)NC2=O)c2ccc([N+](=O)[O-])cc21`, the melting point is 210 to 213 °C.

The compound `CC1=NC(NC(=O)Nc2cccc(C)c2)C(=O)N(CC(=O)C(C)(C)C)c2c(C)cccc21` (stereo unspecified) showed a melting point of 180 to 181 °C.

Take `COCc1ccc(Cn2cc(-c3ccc(OC)cc3)ccc2=O)cc1`: the melting point amounted to 72 °C.

As for `CSC(=O)C(C)(C)NC(=O)c1cc2c(n(CC3CCCCC3)c1=O)CCCCCC2`, the melting point was 196 to 198 °C.

Compound `O=C(O)Cc1cccc(Sc2ccccc2Cl)c1O` gave a melting point of 91 to 93 °C.

For `Clc1ncnc(Cl)c1-c1ccc(-c2ccccc2)cc1`, the melting point was determined as 144 °C.

As to `COc1cc(C(=O)N2Cc3ccc(C(=O)C(Cl)(Cl)Cl)n3Cc3ccccc32)ccc1-c1ccccc1C`, the melting point is 221 to 222 °C.
